The target in test [1] is T1, Epac1 (Homo sapiens, UniProt O95398).
T1 sequence (O95398 1-923): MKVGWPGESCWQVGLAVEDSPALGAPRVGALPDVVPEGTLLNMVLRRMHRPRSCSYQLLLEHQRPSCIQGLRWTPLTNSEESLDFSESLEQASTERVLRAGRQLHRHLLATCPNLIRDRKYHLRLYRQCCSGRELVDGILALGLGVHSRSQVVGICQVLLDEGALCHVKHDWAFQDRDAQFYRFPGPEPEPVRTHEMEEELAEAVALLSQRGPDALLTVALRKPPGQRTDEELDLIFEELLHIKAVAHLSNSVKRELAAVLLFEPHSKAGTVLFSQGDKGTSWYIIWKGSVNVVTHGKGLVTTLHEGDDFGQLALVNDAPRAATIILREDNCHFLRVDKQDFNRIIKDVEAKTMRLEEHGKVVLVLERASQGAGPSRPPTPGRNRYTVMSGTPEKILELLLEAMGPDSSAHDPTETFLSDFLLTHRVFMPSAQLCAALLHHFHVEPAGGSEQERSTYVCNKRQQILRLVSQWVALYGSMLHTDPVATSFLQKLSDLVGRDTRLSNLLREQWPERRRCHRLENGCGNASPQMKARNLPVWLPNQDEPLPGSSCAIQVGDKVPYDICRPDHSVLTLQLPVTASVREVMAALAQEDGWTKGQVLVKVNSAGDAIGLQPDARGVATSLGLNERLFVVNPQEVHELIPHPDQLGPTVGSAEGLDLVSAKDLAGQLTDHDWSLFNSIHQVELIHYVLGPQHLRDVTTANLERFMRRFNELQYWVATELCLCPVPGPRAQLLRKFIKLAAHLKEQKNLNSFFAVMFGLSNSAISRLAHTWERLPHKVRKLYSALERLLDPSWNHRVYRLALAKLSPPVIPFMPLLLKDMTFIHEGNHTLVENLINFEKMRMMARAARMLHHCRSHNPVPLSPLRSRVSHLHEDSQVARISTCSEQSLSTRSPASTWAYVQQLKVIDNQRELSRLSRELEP
The test can be described thus: Rap1-GTP in HEK293 cells transfected with Epac1. The test is classed as cell-based. Further details: expressed in transfected cells; host or cells: HEK293. To be noted: 10 min; for inhibition of Epac1-induced Rap1 activation: 20 μM, 30 min preincubation, 8-CPT-AM 10 μM. The procedure:
FIGS. 9-13. Amounts of Rap1-GTP (n=5 in each group, mean±S.E.M) were determined in HEK293 cells transfected with Epac1 (FIGS. 9-11), Epac2A (FIG. 12) or Epac2B (FIG. 13). Cells were preincubated or not with AM-001 (FIGS. 9, 12, and 13), AM-002 (FIG. 10) or AM-003 (FIG. 11) (20 μM, 30 min) and were then treated or not with 8-CPT-AM (10 μM for Epac1 activation and 20 μM for Epac2A activation) or S-220 (50 μM for Epac2B activation) for 10 min. ESI-05 was used as positive control of Epac2A inhibition. Representative immunoblots are shown. […], *[…], ***p<0.001, ****p<0.0001, versus indicated values, one way ANOVA, Bonferroni comparison test.
Human Embryonic Kidney cells line (HEK293): HEK293 cells were maintained is in minimal essential medium with FBS (10%) and penicillin-streptomycin (1%). All media, sera, and antibiotics used in cell culture were purchased from Invitrogen.
The human Epac1/Epac2 expression vector was a gift from Dr J. L. Bos. Cells were transfected using Lipofectamine 2000 (Invitrogen) according to the manufacturer's instructions. HEK293 cells were maintained in MEM with FBS (Foetal Bovine Serum; 10%) and penicillin-streptomycin (1%). All media, sera and antibiotics used in cell culture were purchased from Invitrogen (Cergy Pontoise, France). Transient transfection experiments were performed with Lipofectamine 2000 (Invitrogen Life Technologies) in the presence of various amounts of plasmid constructs according to the manufacturer's instructions.
This cell line is commonly used for the evaluation of Epac pharmacological modulators on the cellular signaling of ectopically expressed Epac1 and Epac2 isoforms. […] Next, the inventors investigated the effect of 8-CPT-AM on the two Epac2 splice variants, Epac2A and Epac2B (FIGS. 12-13).

A further test has as its target T2, Epac1-BRET sensor CAMYEL (Homo sapiens, UniProt O95398, F824A/T823A).
T2 construct: made in house; host or cells: Prokaryotic expression vector pQE30-CAMYEL; used as cell extract
T2 sequence (O95398 191-923 T823A/F824A limits assumed): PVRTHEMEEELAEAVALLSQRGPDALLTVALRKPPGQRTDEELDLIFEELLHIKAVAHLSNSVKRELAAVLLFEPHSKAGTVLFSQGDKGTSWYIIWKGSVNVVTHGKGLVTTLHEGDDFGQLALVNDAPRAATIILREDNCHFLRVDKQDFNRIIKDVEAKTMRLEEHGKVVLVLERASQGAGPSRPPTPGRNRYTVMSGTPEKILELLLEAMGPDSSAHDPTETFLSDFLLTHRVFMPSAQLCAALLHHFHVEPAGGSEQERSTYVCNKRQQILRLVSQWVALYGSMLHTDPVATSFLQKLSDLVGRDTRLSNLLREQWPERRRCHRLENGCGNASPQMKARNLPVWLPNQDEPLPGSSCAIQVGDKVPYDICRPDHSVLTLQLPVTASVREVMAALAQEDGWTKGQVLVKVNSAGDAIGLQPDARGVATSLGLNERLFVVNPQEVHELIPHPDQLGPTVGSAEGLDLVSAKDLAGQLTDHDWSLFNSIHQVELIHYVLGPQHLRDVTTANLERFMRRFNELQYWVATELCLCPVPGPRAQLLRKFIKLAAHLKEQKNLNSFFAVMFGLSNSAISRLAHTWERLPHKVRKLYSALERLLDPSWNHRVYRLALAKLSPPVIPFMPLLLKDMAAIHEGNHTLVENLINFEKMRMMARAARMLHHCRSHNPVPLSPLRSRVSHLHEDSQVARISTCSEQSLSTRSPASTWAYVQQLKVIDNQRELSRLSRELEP
The test can be described thus: CAMYEL Epac1-BRET sensor assay (cAMP-induced conformational change). The test is classed as biochemical. The following applies: for inhibitory activity on Epac1 activation, structure-activity comments: CAMYEL assay, compared with AM-001; for remaining activity at 20 µM: read-out: BRET ratio variation (% of 100 μM cAMP alone).

The next test deals with T3, Epac2 (Homo sapiens, UniProt Q8WZA2).
T3 sequence (Q8WZA2 1-867 isoform Q8WZA2-3): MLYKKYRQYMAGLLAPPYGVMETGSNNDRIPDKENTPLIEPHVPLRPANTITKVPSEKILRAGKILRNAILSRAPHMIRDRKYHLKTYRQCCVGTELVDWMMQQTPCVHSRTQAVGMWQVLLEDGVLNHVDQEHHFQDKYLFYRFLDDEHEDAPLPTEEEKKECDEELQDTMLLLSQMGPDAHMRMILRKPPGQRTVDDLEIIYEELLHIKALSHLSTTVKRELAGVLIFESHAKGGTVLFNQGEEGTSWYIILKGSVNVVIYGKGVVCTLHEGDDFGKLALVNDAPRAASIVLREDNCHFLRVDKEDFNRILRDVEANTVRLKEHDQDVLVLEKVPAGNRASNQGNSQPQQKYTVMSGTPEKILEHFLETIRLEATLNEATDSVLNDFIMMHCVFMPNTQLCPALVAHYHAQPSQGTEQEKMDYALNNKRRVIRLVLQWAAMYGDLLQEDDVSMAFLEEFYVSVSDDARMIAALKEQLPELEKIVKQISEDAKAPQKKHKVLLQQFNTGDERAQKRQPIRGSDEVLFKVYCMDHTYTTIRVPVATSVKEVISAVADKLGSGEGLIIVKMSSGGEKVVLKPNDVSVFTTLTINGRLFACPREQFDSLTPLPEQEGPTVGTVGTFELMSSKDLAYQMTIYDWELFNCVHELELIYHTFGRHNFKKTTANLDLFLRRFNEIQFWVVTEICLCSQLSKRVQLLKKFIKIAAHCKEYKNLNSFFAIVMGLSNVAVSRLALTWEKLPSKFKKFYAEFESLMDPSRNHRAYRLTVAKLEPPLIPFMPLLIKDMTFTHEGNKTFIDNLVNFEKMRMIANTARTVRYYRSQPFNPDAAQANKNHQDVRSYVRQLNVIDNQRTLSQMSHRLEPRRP
The test is described as follows: Epac GEF activity assay (b-GDP dissociation from recombinant Rap1), Epac2. The test is classed as biochemical. The text has this:
(§1) FIGS. 4-8. […] Variations of relative fluorescence units (RFU) were studied as a function of time and fitted to single exponentials.

The target of test [2] is T4, Epac1 (Homo sapiens, UniProt O95398).
T4 sequence (O95398 191-923 limits assumed): T2 sequence (O95398 191-923 T823A/F824A limits assumed) with A633T, A634F
The test is described as follows: biochemical.
Text: as §1

Substitutions are numbered along the chain they refer to.

For orientation: EC50 means the concentration giving half of the maximal effect.

For `CC(C)NC(=O)c1sc2nc(-c3cccs3)cc(-c3ccc(F)cc3)c2c1N` [AM-003, reference compound], on Epac1 [1], the “inhibition of Epac1-induced Rap1 activation” value is “inactive”. Moreover, on Epac1-BRET sensor CAMYEL, the “inhibitory activity on Epac1 activation, structure-activity comments” value (from here on “inhibitory activity on Epac1 activation”) is on record as “abolished the inhibitory effect” and the remaining activity at 20 µM came out at 100%.
As for `Cc1cc(C)c2c(N)c(C(=O)Nc3ccc(F)cc3)sc2n1` [AM-010, reference compound], on Epac1-BRET sensor CAMYEL, the “inhibitory activity on Epac1 activation” value is listed as “low activity” and the remaining activity at 20 µM turned out to be 101%.
Turning to `O=c1c2sc3nc(-c4cccs4)cc(-c4ccccc4)c3c2ncn1-c1ccccc1` [AM-002, reference compound], the “inhibition of Epac1-induced Rap1 activation” value at Epac1 [1] is “inactive”. Moreover, at Epac1-BRET sensor CAMYEL, the “inhibitory activity on Epac1 activation” value was “no significant inhibitory activity” and the remaining activity at 20 µM turned out to be 93.6%.
Turning to `Nc1ncnc2c1ncn2[C@@H]1O[C@@H]2COP(=O)(O)O[C@H]2[C@H]1O` [cAMP, cyclic AMP, reference compound], on Epac2, the EC50 came to 2.8 ± 1.1 µM.
Take `Nc1c(C(=O)Nc2ccc(F)cc2)sc2nc(-c3cccs3)ccc12` [AM-009]: at Epac1-BRET sensor CAMYEL, the “inhibitory activity on Epac1 activation” value is recorded as “decreased but not abolished” and the remaining activity at 20 µM came to 82.4%.
On to `Nc1c(C(=O)Nc2ccc(F)cc2)sc2nc3c(c(-c4ccccc4)c12)CCCC3` [AM-007], for which, on Epac1-BRET sensor CAMYEL, the remaining activity at 20 µM turned out to be 80.5%.
In the case of `Nc1c(C(=O)Nc2ccccc2)sc2nc(-c3cccs3)cc(-c3ccccc3)c12` [AM-004], at Epac1-BRET sensor CAMYEL, the “inhibitory activity on Epac1 activation” value is on record as “no significant effect on the inhibitory potency” and the remaining activity at 20 µM amounted to 47%.
For the compound `CO[C@@H]1[C@@H]2OP(=O)(OCOC(C)=O)OC[C@H]2O[C@H]1n1c(Sc2ccc(Cl)cc2)nc2c(N)ncnc21` (stereo partly drawn) [8-CPT-AM, 8-(4-chlorophenylthio)-2′-O-methyladenosine-3′,5′-cyclic monophosphate, acetoxymethyl ester], the “activation of Rap1 by agonist” value at Epac1 [1] (cells overexpressing Epac1, 10 μM) is listed as “robust activation of Rap1”.
Turning to `Cc1cc(-c2ccccc2)c2c(N)c(C(=O)Nc3ccccc3)sc2n1` [AM-008], the remaining activity at 20 µM on Epac1-BRET sensor CAMYEL was 82.2%.
As to `COC1C2OP(O)(=S)OCC2OC1n1c(Sc2ccc(Cl)cc2)nc2c(N)ncnc21` (stereo not drawn) [Sp-8-CPT, 8-(4-Chlorophenylthio)-2′-O-methyladenosine-3′,5′-cyclic monophosphorothioate, Sp-isomer], the EC50 on Epac2 was 5.6 ± 1.1 µM; on Epac1 [2] it was 7.5 ± 1.1 µM. Also, the “Vmax of Sp-8-CPT-activated Epac1 relative to cAMP-activated Epac1” value on Epac1 [2] stood at 2.5 fold. The “apparent affinity of Epac1, Sp-8-CPT relative to cAMP” value on Epac1 [2] (higher for Sp-8-CPT than for cAMP) is recorded as 1.7 times.
On to `NC(=O)c1sc2nc(-c3cccs3)cc(-c3ccc(F)cc3)c2c1N` [AM-006], for which, on Epac1-BRET sensor CAMYEL, the “inhibitory activity on Epac1 activation” value is reported as “decreased but not abolished” and the remaining activity at 20 µM worked out at 74%.
For `Nc1c(C(=O)Nc2ccccc2)sc2nc(-c3cccs3)cc(-c3ccc(F)cc3)c12` [AM-005], in that order: “no significant effect on the inhibitory potency” and 46.9%.

These data come from patent US20210230179A1, “THIENO[2,3-B]PYRIDINE DERIVATIVES AS EPAC INHIBITORS AND THEIR PHARMACEUTICAL USES” (INSTITUT NATIONAL DE LA SANTE ET DE LA RECHERCHE MEDICALE …, priority 2018, published 2021).
